Experimental data as given in patent publication US7700797B2, “Use of hydrolysis resistant organomodified silylated surfactants” (Momentive Performance Materials Inc., priority 2006, dated 2010).

How the values were obtained:
[1] = Surface tension, Kruss surface tensiometer; assay type: physicochemical; details: 0.1 wt % in 0.005M NaCl water
Description: Surface tension was measured using a Kruss surface tensiometer, with a sand blasted platinum blade as the sensor. Solutions of the various components were prepared at 0.1 wt % in 0.005M NaCl water (deionized), as an equilibrium aid.

[2] = Spreading of 10 μL droplet on polystyrene Petri dishes; assay type: physicochemical; details: 30 seconds
Description: Spreading was determined by applying a 10 μL droplet, of surfactant solution to polystyrene Petri dishes (Fisher Scientific) and measuring the spread diameter (mm) after 30 seconds, at a relative humidity between 50 and 70% (at 22 to 25° C.). The solution was applied with an automatic pipette to provide droplets of reproducible volume. Deionized water that was further purified with a Millipore filtration system was used to prepare the surfactant solutions.

| Molecule | Surface Tension [1] [mN/m] | Spread Diameter ([2]; 0.05% surfactant) [mm] | Spread Diameter ([2]; 0.1% surfactant) [mm] | Spread Diameter ([2]; 0.3% surfactant) [mm] | Spread Diameter ([2]; 0.5% surfactant) [mm] |
| --- | --- | --- | --- | --- | --- |
| C[Si](C)(C)C[Si](C)(C)CCCOCCOCCOCCOCCO [Product 6] | 22.5 | 40 | 45 | 53 | 47 |
| C[Si](C)(C)CC[Si](C)(C)CCCOCCOCCOCCOCCO [Product 7] | 22.7 | 30 | 42 | 48 | 49 |
| C[Si](C)(C)C[Si](C)(C)CCCOCCOCCOCCOCCOCCOCCOCCOCCOCCOCCOCCO [Product 8] | 27.7 |  | 7 |  | 7 |
| C[Si](C)(C)CC[Si](C)(C)CCCOCCOCCOCCOCCOCCOCCOCCOCCOCCOCCOCCO [Product 9] | 26.7 |  | 7 |  | 7 |
| Octylphenolethoxylate [OPE] | 31.8 |  | 9 |  | 10 |
